pIC50: −log10 of the molar value. Where two headings read alike, the source gives them in different places. Positions of bridges follow the written chain, without caps; N, C: chain ends. Residues, ends and D or L forms follow the SMILES beside them.
Legend:
Assay in all cases: cell-based
[1] = molecular target: T1, hNav1.7 (Homo sapiens, UniProt Q15858); format: cell-based; settings: IonWorks Quattro; clamped to −110 mV, depolarized to −10 mV, 5 min after compound; n=2; read-out: IWQ Use Nav1.7
[2] = molecular target: T2, hNav1.3 (Homo sapiens, UniProt Q9NY46); settings: IonWorks Quattro; clamped to −110 mV, depolarized to −10 mV, 5 min after compound; n=2; read-out: IWQ Use Nav1.3
[3] = molecular target: T1, hNav1.7; settings: Nav1.7 Use IC50
[4] = molecular target: hNav1.5 (Homo sapiens, UniProt Q14524); settings: IonWorks Quattro; clamped to −110 mV, depolarized to −10 mV, 5 min after compound; n=2; read-out: IWQ Use Nav1.5
[5] = molecular target: T2, hNav1.3; format: cell-based; settings: for pIC50: Nav1.3 Use IC50

T1 sequence (Q15858 whole entry, looked up): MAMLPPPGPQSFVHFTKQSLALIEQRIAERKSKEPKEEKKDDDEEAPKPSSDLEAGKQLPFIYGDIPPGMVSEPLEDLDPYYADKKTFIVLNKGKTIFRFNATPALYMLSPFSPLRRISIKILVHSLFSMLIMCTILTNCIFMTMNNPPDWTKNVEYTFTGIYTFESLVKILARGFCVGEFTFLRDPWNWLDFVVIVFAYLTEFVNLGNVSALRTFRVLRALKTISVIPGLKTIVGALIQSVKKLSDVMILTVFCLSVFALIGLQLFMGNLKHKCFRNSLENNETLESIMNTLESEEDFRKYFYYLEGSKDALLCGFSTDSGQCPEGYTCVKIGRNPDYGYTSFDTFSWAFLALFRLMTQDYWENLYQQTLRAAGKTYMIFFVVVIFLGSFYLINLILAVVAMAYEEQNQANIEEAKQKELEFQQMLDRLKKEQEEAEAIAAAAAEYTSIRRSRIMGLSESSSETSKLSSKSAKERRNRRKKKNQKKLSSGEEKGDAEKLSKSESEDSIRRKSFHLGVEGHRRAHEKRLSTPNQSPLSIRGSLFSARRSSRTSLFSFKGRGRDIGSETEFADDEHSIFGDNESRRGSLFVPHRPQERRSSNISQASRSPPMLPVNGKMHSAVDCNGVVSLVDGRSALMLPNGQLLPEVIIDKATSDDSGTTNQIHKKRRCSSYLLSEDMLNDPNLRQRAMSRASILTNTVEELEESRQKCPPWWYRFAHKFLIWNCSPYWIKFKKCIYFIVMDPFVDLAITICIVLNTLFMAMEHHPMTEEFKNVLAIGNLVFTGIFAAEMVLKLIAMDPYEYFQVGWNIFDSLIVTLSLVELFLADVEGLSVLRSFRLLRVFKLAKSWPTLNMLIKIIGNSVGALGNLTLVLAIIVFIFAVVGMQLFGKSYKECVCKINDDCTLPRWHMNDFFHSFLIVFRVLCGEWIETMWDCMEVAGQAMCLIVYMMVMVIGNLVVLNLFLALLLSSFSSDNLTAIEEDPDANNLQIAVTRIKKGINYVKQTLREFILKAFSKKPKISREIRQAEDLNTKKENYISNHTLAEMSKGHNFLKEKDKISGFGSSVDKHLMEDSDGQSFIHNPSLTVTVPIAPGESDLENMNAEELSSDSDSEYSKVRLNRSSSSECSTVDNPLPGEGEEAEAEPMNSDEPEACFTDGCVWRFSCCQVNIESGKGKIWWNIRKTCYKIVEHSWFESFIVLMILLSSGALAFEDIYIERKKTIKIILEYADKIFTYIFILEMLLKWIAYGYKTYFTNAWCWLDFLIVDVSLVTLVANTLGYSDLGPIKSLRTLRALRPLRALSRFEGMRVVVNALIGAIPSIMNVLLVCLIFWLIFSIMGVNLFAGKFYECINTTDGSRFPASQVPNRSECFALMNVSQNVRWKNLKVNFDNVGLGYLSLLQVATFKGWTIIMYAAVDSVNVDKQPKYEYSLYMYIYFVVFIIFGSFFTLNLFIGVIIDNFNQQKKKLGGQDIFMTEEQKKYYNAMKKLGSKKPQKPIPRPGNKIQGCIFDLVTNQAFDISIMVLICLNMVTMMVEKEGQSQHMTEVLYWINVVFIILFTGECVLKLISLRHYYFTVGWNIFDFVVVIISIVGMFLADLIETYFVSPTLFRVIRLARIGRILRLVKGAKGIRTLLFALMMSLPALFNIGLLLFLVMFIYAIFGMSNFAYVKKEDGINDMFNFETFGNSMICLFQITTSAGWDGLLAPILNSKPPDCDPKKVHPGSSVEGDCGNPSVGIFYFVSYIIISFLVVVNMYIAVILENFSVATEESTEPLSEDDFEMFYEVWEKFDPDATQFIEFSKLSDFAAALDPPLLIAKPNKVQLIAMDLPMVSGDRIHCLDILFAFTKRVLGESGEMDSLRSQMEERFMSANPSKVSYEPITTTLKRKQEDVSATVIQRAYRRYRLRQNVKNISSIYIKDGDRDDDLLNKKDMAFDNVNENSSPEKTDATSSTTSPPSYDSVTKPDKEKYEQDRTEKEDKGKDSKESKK
T2 sequence (Q9NY46 whole entry, looked up): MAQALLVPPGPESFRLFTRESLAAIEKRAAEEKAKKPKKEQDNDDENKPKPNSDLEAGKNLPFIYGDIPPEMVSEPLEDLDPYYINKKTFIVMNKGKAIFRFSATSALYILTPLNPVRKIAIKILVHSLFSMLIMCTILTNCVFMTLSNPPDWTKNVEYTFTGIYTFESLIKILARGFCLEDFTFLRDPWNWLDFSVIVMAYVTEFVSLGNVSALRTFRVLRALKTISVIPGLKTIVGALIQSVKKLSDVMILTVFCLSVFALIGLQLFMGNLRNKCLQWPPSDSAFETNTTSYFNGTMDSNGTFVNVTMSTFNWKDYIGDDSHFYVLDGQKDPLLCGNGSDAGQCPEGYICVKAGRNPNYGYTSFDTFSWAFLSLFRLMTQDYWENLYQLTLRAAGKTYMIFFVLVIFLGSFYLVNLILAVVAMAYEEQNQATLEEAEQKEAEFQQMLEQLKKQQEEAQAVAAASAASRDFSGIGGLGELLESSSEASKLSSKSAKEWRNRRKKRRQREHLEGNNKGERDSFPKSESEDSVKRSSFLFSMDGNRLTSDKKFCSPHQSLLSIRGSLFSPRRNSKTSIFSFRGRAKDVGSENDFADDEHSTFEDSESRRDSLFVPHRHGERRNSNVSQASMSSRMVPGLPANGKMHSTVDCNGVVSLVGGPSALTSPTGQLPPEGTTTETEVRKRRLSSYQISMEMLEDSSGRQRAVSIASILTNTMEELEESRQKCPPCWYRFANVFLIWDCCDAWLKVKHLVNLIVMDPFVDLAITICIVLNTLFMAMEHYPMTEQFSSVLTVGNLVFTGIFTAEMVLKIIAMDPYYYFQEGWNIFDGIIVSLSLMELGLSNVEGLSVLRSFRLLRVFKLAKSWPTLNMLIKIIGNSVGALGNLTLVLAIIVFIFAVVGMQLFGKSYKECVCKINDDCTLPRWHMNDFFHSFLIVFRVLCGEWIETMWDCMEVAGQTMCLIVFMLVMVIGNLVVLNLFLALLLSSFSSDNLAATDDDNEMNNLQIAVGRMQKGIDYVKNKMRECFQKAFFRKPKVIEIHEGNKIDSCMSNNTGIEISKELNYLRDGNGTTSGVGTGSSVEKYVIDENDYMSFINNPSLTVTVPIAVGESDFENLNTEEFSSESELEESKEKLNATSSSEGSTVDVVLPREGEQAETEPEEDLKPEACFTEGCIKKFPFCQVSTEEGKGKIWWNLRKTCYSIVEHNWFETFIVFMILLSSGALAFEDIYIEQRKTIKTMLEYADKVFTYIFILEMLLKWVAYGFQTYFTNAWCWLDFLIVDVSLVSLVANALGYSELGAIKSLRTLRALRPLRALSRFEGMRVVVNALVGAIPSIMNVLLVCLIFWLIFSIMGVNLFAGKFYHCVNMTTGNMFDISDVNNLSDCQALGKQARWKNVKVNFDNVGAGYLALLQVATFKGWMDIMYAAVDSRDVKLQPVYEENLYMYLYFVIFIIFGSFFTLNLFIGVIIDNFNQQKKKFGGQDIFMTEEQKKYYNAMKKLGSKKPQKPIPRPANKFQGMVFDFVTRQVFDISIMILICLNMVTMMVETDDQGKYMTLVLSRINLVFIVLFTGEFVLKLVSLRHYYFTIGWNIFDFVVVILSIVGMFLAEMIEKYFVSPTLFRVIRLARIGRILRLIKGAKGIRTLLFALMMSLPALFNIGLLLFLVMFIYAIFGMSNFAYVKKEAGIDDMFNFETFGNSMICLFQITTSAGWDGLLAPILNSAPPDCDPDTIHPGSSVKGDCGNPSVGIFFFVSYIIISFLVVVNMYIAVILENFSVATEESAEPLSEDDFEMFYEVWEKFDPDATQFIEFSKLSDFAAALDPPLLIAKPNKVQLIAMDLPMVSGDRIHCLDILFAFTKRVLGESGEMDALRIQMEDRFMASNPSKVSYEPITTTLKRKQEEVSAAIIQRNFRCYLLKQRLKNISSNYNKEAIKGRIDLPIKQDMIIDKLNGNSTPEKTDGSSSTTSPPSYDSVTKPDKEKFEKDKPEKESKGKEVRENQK

## CC[C@H](C)[C@@H]1NC(=O)[C@@H]2CSSC[C@@H]3NC(=O)[C@H](C(C)C)NC(=O)[C@H](CC(C)C)NC(=O)[C@H](CC(N)=O)NC(=O)[C@@H]4CCCN4C(=O)[C@H](CCCNC(=N)N)NC(=O)[C@H](CSSC[C@H](NC(=O)[C@@H](N)CC(=O)O)C(=O)N[C@@H](CC(C)C)C(=O)NCC(=O)N[C@@H](Cc4ccccc4)C(=O)N[C@@H](CC(C)C)C(=O)N[C@@H](CCCNC(=N)N)C(=O)N[C@@H](CCCCN)C(=O)N2)NC(=O)[C@H](CSSC[C@@H](C(=O)N[C@@H](CCCCN)C(=O)N[C@@H](Cc2ccc(O)cc2)C(=O)N[C@H](C(=O)N[C@@H](Cc2ccccc2)C(N)=O)C(C)C)NC(=O)[C@H](Cc2c[nH]c4ccccc24)NC(=O)[C@H](CCCCN)NC(=O)[C@H](Cc2cnc[nH]2)NC(=O)[C@H]([C@@H](C)O)NC(=O)[C@H](CCCNC(=N)N)NC(=O)[C@H](CO)NC3=O)NC(=O)[C@H](CCCCN)NC(=O)[C@H](CC(=O)O)NC(=O)[C@H](CC(N)=O)NC(=O)[C@H](CC(=O)O)NC(=O)[C@@H]2CCCN2C1=O [SEQ ID NO: 244] (H-DCLGFLRKCIPDNDKCCRPNLVCSRTHKWCKYVF-NH2; disulfide 2-17, 9-23, 16-30)
[1]
  pIC50: 7.22
[2]
  pIC50: 7.40
[3]
  pIC50: 7.59
[4]
  pIC50: 5.19
[5]
  pIC50: 7.74

## CC[C@H](C)[C@@H]1NC(=O)[C@@H]2CSSC[C@@H]3NC(=O)[C@H](C(C)C)NC(=O)[C@H](CC(C)C)NC(=O)[C@H](CC(N)=O)NC(=O)[C@@H]4CCCN4C(=O)[C@H](CCCNC(=N)N)NC(=O)[C@H](CSSC[C@H](NC(=O)[C@@H](N)CC(=O)O)C(=O)N[C@@H](CC(C)C)C(=O)NCC(=O)N[C@@H](Cc4ccc(I)cc4)C(=O)N[C@@H](CCSC)C(=O)N[C@@H](CCCNC(=N)N)C(=O)N[C@@H](CCCCN)C(=O)N2)NC(=O)[C@H](CSSC[C@@H](C(=O)N[C@@H](CCCCN)C(=O)N[C@@H](Cc2ccc(O)cc2)C(=O)N[C@H](C(=O)N[C@@H](Cc2ccccc2)C(N)=O)C(C)C)NC(=O)[C@H](Cc2c[nH]c4ccccc24)NC(=O)[C@H](CCCCN)NC(=O)[C@H](Cc2c[nH]cn2)NC(=O)[C@H]([C@@H](C)O)NC(=O)[C@H](CCCNC(=N)N)NC(=O)[C@H](CO)NC3=O)NC(=O)[C@H](CCCCN)NC(=O)[C@H](CC(=O)O)NC(=O)[C@H](CC(N)=O)NC(=O)[C@H](CC(=O)O)NC(=O)[C@@H]2CCCN2C1=O [SEQ ID NO: 247]
[1]
  pIC50: 6.80
[2]
  pIC50: 7.70
[3]
  pIC50: 6.61
[4]
  pIC50: 5.21
[5]
  potency against NaV1.3, in words: increased potency
  pIC50: 7.05

## CC[C@H](C)[C@@H]1NC(=O)[C@@H]2CSSC[C@@H]3NC(=O)[C@H](C(C)C)NC(=O)[C@H](CC(C)C)NC(=O)[C@H](CC(N)=O)NC(=O)[C@@H]4CCCN4C(=O)[C@H](CCCNC(=N)N)NC(=O)[C@H](CSSC[C@H](NC(=O)[C@@H](N)CC(=O)O)C(=O)N[C@@H](CC(C)C)C(=O)NCC(=O)N[C@@H](C)C(=O)N[C@@H](CCSC)C(=O)N[C@@H](CCCNC(=N)N)C(=O)N[C@@H](CCCCN)C(=O)N2)NC(=O)[C@H](CSSC[C@@H](C(=O)N[C@@H](CCCCN)C(=O)N[C@@H](Cc2ccc(O)cc2)C(=O)N[C@H](C(=O)N[C@@H](Cc2ccccc2)C(N)=O)C(C)C)NC(=O)[C@H](Cc2c[nH]c4ccccc24)NC(=O)[C@H](CCCCN)NC(=O)[C@H](Cc2cnc[nH]2)NC(=O)[C@H](CC(C)C)NC(=O)[C@H](CCCNC(=N)N)NC(=O)[C@H](CO)NC3=O)NC(=O)[C@H](CCCCN)NC(=O)[C@H](CC(=O)O)NC(=O)[C@H](CC(N)=O)NC(=O)[C@H](CC(=O)O)NC(=O)[C@@H]2CCCN2C1=O [[Ala5;Leu26]GpTx-1(1-34)] (H-DCLGAMRKCIPDNDKCCRPNLVCSRLHKWCKYVF-NH2; disulfide 2-17, 9-23, 16-30)
[3]
  pIC50: 7.31
[5]
  pIC50: 6.33

## CC[C@H](C)[C@@H]1NC(=O)[C@@H]2CSSC[C@@H]3NC(=O)[C@H](C(C)C)NC(=O)[C@H](CC(C)C)NC(=O)[C@H](CC(N)=O)NC(=O)[C@@H]4CCCN4C(=O)[C@H](CCCNC(=N)N)NC(=O)[C@H](CSSC[C@H](NC(=O)[C@@H](N)CC(=O)O)C(=O)N[C@@H](CC(C)C)C(=O)NCC(=O)N[C@@H](C)C(=O)N[C@@H](Cc4ccccc4)C(=O)N[C@@H](CCCNC(=N)N)C(=O)N[C@@H](CCCCN)C(=O)N2)NC(=O)[C@H](CSSC[C@@H](C(=O)N[C@@H](CCCCN)C(=O)N[C@@H](Cc2ccc(O)cc2)C(=O)N[C@H](C(=O)N[C@@H](Cc2ccccc2)C(N)=O)C(C)C)NC(=O)[C@H](Cc2c[nH]c4ccccc24)NC(=O)[C@H](CCCNC(=N)N)NC(=O)[C@H](Cc2cnc[nH]2)NC(=O)[C@H](CC(C)C)NC(=O)[C@H](CCCNC(=N)N)NC(=O)[C@H](CO)NC3=O)NC(=O)[C@H](CCCCN)NC(=O)[C@H](CC(=O)O)NC(=O)[C@H](CC(N)=O)NC(=O)[C@H](CC(=O)O)NC(=O)[C@@H]2CCCN2C1=O [[Ala5;Phe6;Leu26;Arg28]GpTx-1(1-34)] (H-DCLGAFRKCIPDNDKCCRPNLVCSRLHRWCKYVF-NH2; disulfide 2-17, 9-23, 16-30)
[3]
  pIC50: 8.70
[5]
  pIC50: 8.10

## CC[C@H](C)[C@@H]1NC(=O)[C@@H]2CSSC[C@@H]3NC(=O)[C@H](C(C)C)NC(=O)[C@H](CC(C)C)NC(=O)[C@H](CC(N)=O)NC(=O)[C@@H]4CCCN4C(=O)[C@H](CCCNC(=N)N)NC(=O)[C@H](CSSC[C@H](NC(=O)[C@@H](N)CC(=O)O)C(=O)N[C@@H](CC(C)C)C(=O)NCC(=O)N[C@@H](C)C(=O)N[C@@H](Cc4c[nH]c5ccccc45)C(=O)N[C@@H](CCCNC(=N)N)C(=O)N[C@@H](CCCCN)C(=O)N2)NC(=O)[C@H](CSSC[C@@H](C(=O)N[C@@H](CCCCN)C(=O)N[C@@H](Cc2ccc(O)cc2)C(=O)N[C@H](C(=O)N[C@@H](Cc2ccccc2)C(N)=O)C(C)C)NC(=O)[C@H](Cc2c[nH]c4ccccc24)NC(=O)[C@H](CCCCN)NC(=O)[C@H](Cc2cnc[nH]2)NC(=O)[C@H]([C@@H](C)O)NC(=O)[C@H](CCCNC(=N)N)NC(=O)[C@H](CO)NC3=O)NC(=O)[C@H](CCCCN)NC(=O)[C@H](CC(=O)O)NC(=O)[C@H](CC(N)=O)NC(=O)[C@H](CC(=O)O)NC(=O)[C@@H]2CCCN2C1=O [[Ala5;Trp6]GpTx-1(1-34)] (H-DCLGAWRKCIPDNDKCCRPNLVCSRTHKWCKYVF-NH2; disulfide 2-17, 9-23, 16-30)
[3]
  pIC50: 7.24
[5]
  pIC50: 7.09

## CC[C@H](C)[C@@H]1NC(=O)[C@@H]2CSSC[C@@H]3NC(=O)[C@H](C(C)C)NC(=O)[C@H](CC(C)C)NC(=O)[C@H](CC(N)=O)NC(=O)[C@@H]4CCCN4C(=O)[C@H](CCC(=O)O)NC(=O)[C@H](CSSC[C@H](NC(=O)[C@@H](N)CC(=O)O)C(=O)N[C@@H](CC(C)C)C(=O)NCC(=O)N[C@@H](Cc4ccccc4)C(=O)N[C@@H](CCSC)C(=O)N[C@@H](CCCNC(=N)N)C(=O)N[C@@H](CCCCN)C(=O)N2)NC(=O)[C@H](CSSC[C@@H](C(=O)N[C@@H](CCCCN)C(=O)N[C@@H](Cc2ccc(O)cc2)C(=O)N[C@H](C(=O)N[C@@H](Cc2ccccc2)C(N)=O)C(C)C)NC(=O)[C@H](Cc2c[nH]c4ccccc24)NC(=O)[C@H](CCCCN)NC(=O)[C@H](Cc2cnc[nH]2)NC(=O)[C@H]([C@@H](C)O)NC(=O)[C@H](CCCNC(=N)N)NC(=O)[C@H](CO)NC3=O)NC(=O)[C@H](CCCCN)NC(=O)[C@H](CC(=O)O)NC(=O)[C@H](CC(N)=O)NC(=O)[C@H](CC(=O)O)NC(=O)[C@@H]2CCCN2C1=O [[Glu18]GpTx-1(1-34)] (H-DCLGFMRKCIPDNDKCCEPNLVCSRTHKWCKYVF-NH2; disulfide 2-17, 9-23, 16-30)
[3]
  pIC50: 7.74
[5]
  pIC50: 7.01

## CC[C@H](C)[C@@H]1NC(=O)[C@@H]2CSSC[C@@H]3NC(=O)[C@H](C(C)C)NC(=O)[C@H](CC(C)C)NC(=O)[C@H](CC(N)=O)NC(=O)[C@@H]4CCCN4C(=O)[C@H](CCCNC(=N)N)NC(=O)[C@H](CSSC[C@H](NC(=O)[C@@H](N)CC(=O)O)C(=O)N[C@@H](CC(C)C)C(=O)NCC(=O)N[C@@H](Cc4ccccc4)C(=O)N[C@@H](CCSC)C(=O)N[C@@H](CCCNC(=N)N)C(=O)N[C@@H](CCCCN)C(=O)N2)NC(=O)[C@H](CSSC[C@@H](C(=O)N[C@@H](CCCCN)C(=O)N[C@@H](Cc2ccc(O)cc2)C(=O)N[C@H](C(=O)N[C@@H](Cc2ccccc2)C(N)=O)C(C)C)NC(=O)[C@H](Cc2c[nH]c4ccccc24)NC(=O)[C@H](CCCCN)NC(=O)[C@H](Cc2cnc[nH]2)NC(=O)[C@H](CCC(=O)O)NC(=O)[C@H](CCCNC(=N)N)NC(=O)[C@H](CO)NC3=O)NC(=O)[C@H](CCCCN)NC(=O)[C@H](CC(=O)O)NC(=O)[C@H](CC(N)=O)NC(=O)[C@H](CC(=O)O)NC(=O)[C@@H]2CCCN2C1=O [[Glu26]GpTx-1(1-34)] (H-DCLGFMRKCIPDNDKCCRPNLVCSREHKWCKYVF-NH2; disulfide 2-17, 9-23, 16-30)
[3]
  pIC50: 7.28
[5]
  pIC50: 6.67

— patent publication US9340590B2 (priority 2011, dated 2016)
